The target in data set [1] is T1, TRB2 (Homo sapiens, UniProt Q92519).
T1 sequence (Q92519 1-343): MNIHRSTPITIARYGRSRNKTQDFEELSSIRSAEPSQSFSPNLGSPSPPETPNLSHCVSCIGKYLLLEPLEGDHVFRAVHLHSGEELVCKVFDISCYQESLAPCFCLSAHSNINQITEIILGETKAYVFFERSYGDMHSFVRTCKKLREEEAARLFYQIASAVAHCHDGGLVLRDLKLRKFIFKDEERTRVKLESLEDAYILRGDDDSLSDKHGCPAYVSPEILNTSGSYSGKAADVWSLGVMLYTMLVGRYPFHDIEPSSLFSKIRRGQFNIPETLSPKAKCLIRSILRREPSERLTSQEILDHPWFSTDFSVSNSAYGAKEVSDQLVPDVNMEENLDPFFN
Kind of data set: intrinsic fluorescence thermal shift. The following applies: 1 mM ATP, 2 mM EDTA, TRB buffer pH 9.0. The class given is binding.

In the next data set the target is T2, CASK (Homo sapiens, UniProt O14936).
T2 sequence (O14936 1-337): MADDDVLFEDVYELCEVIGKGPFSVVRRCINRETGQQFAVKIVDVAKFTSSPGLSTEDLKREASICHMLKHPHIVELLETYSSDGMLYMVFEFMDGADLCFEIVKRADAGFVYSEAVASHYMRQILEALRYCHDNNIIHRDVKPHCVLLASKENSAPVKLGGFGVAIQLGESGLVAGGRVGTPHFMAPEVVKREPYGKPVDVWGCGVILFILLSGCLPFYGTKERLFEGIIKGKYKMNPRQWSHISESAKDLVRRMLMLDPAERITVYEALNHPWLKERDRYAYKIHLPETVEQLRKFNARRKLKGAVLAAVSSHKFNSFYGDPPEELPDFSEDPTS
Put plainly: Sypro Orange thermal shift. The class given is binding. The following applies: ATP dose series, 2 mM EDTA, TRB buffer pH 9.0.

Data set [2] concerns the target T3, TRB2 (Homo sapiens, UniProt Q92519, K90M).
T3 sequence (Q92519 1-343 K90M): T1 sequence (Q92519 1-343) with K90M
Put plainly: intrinsic fluorescence thermal shift. The following applies: 1 mM ATP, 2 mM EDTA, TRB buffer pH 9.0. The class given is binding.

Another data set concerns the target T4, Aurora A (Homo sapiens, UniProt O14965).
T4 sequence (O14965 1-403): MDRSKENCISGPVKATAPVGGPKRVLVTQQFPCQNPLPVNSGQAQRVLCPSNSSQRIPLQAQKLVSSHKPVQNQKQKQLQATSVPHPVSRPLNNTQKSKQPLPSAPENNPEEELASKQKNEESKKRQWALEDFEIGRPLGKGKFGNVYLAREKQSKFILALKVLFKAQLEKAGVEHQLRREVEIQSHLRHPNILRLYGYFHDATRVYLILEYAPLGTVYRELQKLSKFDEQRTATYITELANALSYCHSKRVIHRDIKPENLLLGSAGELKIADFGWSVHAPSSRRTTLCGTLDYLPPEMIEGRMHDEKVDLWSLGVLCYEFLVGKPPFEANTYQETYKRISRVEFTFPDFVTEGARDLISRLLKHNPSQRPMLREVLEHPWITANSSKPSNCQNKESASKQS
Kind of data set: intrinsic fluorescence thermal shift. The class given is binding. To be noted: 1 mM ATP, 10 mM Mg2+, no EDTA, TRB buffer pH 9.0.

In data set [3] the target is T5, TRB2 (Homo sapiens, UniProt Q92519, K90A).
T5 sequence (Q92519 1-343 K90A): T1 sequence (Q92519 1-343) with K90A
Kind of data set: intrinsic fluorescence thermal shift. It is filed as binding. The following applies: 1 mM ATP, 2 mM EDTA, TRB buffer pH 9.0.

Substrate in the data set “purified protein”: Nc1ncnc2c1ncn2[C@@H]1O[C@H](COP(=O)(O)OP(=O)(O)OP(=O)(O)O)[C@@H](O)[C@H]1O
Put plainly: purified protein. It is filed as biochemical, Homo sapiens. The following applies: co-substrate histone H3; Mg2+-ATP.

Positions count from the first letter of the chain named.

As a reminder, the ΔTm is the shift of the melting midpoint relative to a reference. Consider `Nc1ncnc2c1ncn2[C@@H]1O[C@H](COP(=O)(O)OP(=O)(O)OP(=O)(O)O)[C@@H](O)[C@H]1O` [ATP], for which the ΔTm on TRB2 [1] was 3.64 °C; at CASK, “both CASK and TRB2 exhibited demonstrable dose-dependent binding to ATP”; at TRB2 [2], 1.59 °C; at Aurora A, 2.99 °C; on TRB2 [3], 0.23 °C.

B1: Aurora A (Homo sapiens) (protein)
chain: T4 sequence (O14965 1-403)
As a reminder, the Km is the substrate concentration at which the rate is half of its maximum. With B1, in “purified protein”, the Km was 14.3 ± 2.6 µM.
